Measured values published in US20220387417A1, “Pharmaceutical Combination and Use Thereof” (CSTONE PHARMACEUTICALS (SUZHOU) CO., LTD., priority 2019, published 2022).
“And” between values parts separate entries of the source, which are not always exact repeats. Equal values may be shown once. Where a name gives a salt, the structure may show the parent alone.

Legend:
[1] = tested on: subcutaneous MC38-hPD-L1 transplanted tumor; assay: Antibody 1.14.4 monotherapy or in combination with Lenvatinib mesylate on B-hPD-1 humanized mouse MC38-hPD-L1 colon cancer model: tumor volume, tumor weight, TGI, synergy score; assay type: in vivo
Description: (§1) Mouse colon cancer cells MC38 were purchased from Shun Ran (Shanghai) Biotechnology Co., Ltd., and the cells were cultured in a 37° C., 5% CO2 incubator supplemented with Dulbecco's Modified Eagle's medium containing 10% inactivated fetal bovine serum. MC38 cells were genetically modified to overexpress human PD-L1 and knock out murine PD-L1, the modified cells were named as MC38-hPD-L1 cells.
(§2) MC38-hPD-L1 tumor cells were resuspended in 1×PBS to a concentration of 5×10^6 cells/mL. Each of the B-hPD-1 humanized mice was subcutaneously inoculated at the right lateral thorax region with 0.1 mL of the cell suspension, and a total of 85 mice were inoculated. On the 7th day after inoculation, when the average tumor volume reached about 103 mm^3, the mice with moderate tumor volume were selected and randomly divided into 8 groups according to tumor volume, with 7 mice in each group, and the treatment was initiated on the same day.
Tumor volume was measured three times a week in two dimensions using a caliper, and the volume was expressed in mm^3 using the formula: V=0.5 a×b^2 where a and b were the long and short diameters of the tumor, respectively.
(§3) At the termination of the experiment, the animals were photographed to record the tumor bearing state after euthanasia, and the tumors of the mice were weighed and photographed.
TGITV(%)=[1−(Ti−T0)/(Vi−V0)]×100%.
Ti: tumor volume of the treatment group at day i following treatment; T0: tumor volume of the treatment group at day 0 following treatment; Vi: tumor volume of the control group at day i following treatment; V0: tumor volume of the control group at day 0 following treatment.
At the termination of the experiment, the animals were euthanized, the tumors were separated and weighed, and the difference of tumor weight between each group was calculated. Tumor weight inhibition (TGITW) was calculated by the formula:
TGITW (%)=(WC−WT)/[…]×100%; where We means tumor weight of control group, WT means tumor weight of treatment group.
(§4) The original data measured and observed must be recorded. The original data was analyzed and the results were expressed by mean and standard error (Mean±SEM). The data of body weight, tumor volume and tumor weight was statistically analyzed using independent-samples t-test. All data were analyzed using SPSS, P<0.05 is considered to be statistically significant. The results of the analysis were considered both statistical significance and biological significance.
(§5) Synergy score was calculated using the following formula described in Clarke R. Issues in experimental design and endpoint analysis in the study of experimental cytotoxic agents in vivo in breast cancer and other models[J]. Breast Cancer Research & Treatment, 1997, 46(2-3):255-278, which is incorporated by reference in its entirety:
(§6) Synergy score=((A/C)×(B/C))/(AB/C);
(§7) where A is RTV value of drug A; B is RTV value of drug B; C is RTV value of vehicle control; AB is RTV value of combination treatment with A and B respectively. • Synergy score>1 represents synergistic; • Synergy score=1 represents additive; • Synergy score<1 represents antagonistic.
(§8) where V0 and Vt are the average tumor volume at the start of treatment (day 0) and the average tumor volume on a certain time point (day t).

[2] = Body weight of B-hPD-1 mice bearing MC38-hPD-L1 tumors, Embodiment 1 (antibody 1.14.4 / Lenvatinib mesylate); assay type: in vivo, Mus musculus
Description: as §2
(§9) Animals were weighed 2-3 times a week before tumor inoculation, during animal grouping and the treatment, and before the euthanasia.
as §4

[3] = tested on: subcutaneous MC38-hPD-L1 transplanted tumor; assay: Antibody 2E5 monotherapy or in combination with Lenvatinib mesylate on B-hPD-1 humanized mouse MC38-hPD-L1 colon cancer model: tumor volume, tumor weight, TGI, synergy score; assay type: in vivo
Description: as §5, §6, §7, §8, §1
as §2, with “of 5×10^5 cells per 0.1 mL.” for “of 5×10^6 cells/mL.”, “cell suspension. When” for “cell suspension, and a total of 85 mice were inoculated. On the 7th day after inoculation, when”, “about 77” for “about 103”, “into 6” for “into 8”, “with 10” for “with 7”
Tumor volume was measured 2-3 times a week in two dimensions using a caliper, and the volume was expressed in mm^3 using the formula: V=0.5 a×b^2 where a and b were the long and short diameters of the tumor, respectively.
as §3
TGITV(%)=[1−(Ti−T0)/(Vi−V0)]×100%. […]
At the termination of the experiment, the animals were euthanized, the tumors were separated and weighed, and the difference of tumor weight between each group was calculated. Tumor weight inhibition (TGITW) was calculated by the formula: […]
as §4, with “significant.” for “significant. The results of the analysis were considered both statistical significance and biological significance.”

[4] = Body weight of B-hPD-1 humanized mice bearing MC38-hPD-L1 tumors, Embodiment 2 (antibody 2E5 / Lenvatinib mesylate); assay type: in vivo, Mus musculus
Description: as §2, with “of 5×10^5 cells per 0.1 mL.” for “of 5×10^6 cells/mL.”, “cell suspension. When” for “cell suspension, and a total of 85 mice were inoculated. On the 7th day after inoculation, when”, “about 77” for “about 103”, “into 6” for “into 8”, “with 10” for “with 7”
as §9
as §4, with “significant.” for “significant. The results of the analysis were considered both statistical significance and biological significance.”

[5] = 17th day after the start of treatment, Antibody 2E5 1 mg/kg i.p., Lenvatinib mesylate 1 mg/kg p.o. QD (G2, G4, G5)

## COc1cc2nccc(Oc3ccc(NC(=O)NC4CC4)c(Cl)c3)c2cc1C(N)=O [Lenvatinib mesylate, reference compound]
[1]; 16th day after the start of treatment, antibody 1.14.4 3 mg/kg Q2D i.p., Lenvatinib mesylate 1 mg/kg QD p.o.
  Tumor volume (mm^3)/Mean ± SEM Day 16: 1333 ± 261 mm^3
[1]; Day 0, Antibody 1.14.4 3 mg/kg, Lenvatinib mesylate 1 mg/kg, Table 11
  Tumor volume (mm^3)/Mean ± SEM Day 0: 103 ± 8 mm^3
[1]; Day 0 = day of the start of treatment, antibody 1.14.4 3 mg/kg, Lenvatinib mesylate 1 mg/kg, Table 10
  Tumor volume (mm^3)/Mean ± SEM Day 0: 103 ± 8 mm^3
[1]; Day 20, Antibody 1.14.4 3 mg/kg Q2D i.p., Lenvatinib mesylate 1 mg/kg QD p.o.
  Tumor volume (mm^3)/Mean ± SEM Day 20: 1726 ± 374 mm^3
[1]; Day 20, antibody 1.14.4 3 mg/kg, Lenvatinib mesylate 1 mg/kg, Table 13
  Tumor weight (g) Mean ± SEM: 1.244 ± 0.292 g
[1]; group mean (7 mice), Day 20, Antibody 1.14.4 3 mg/kg, Lenvatinib mesylate 1 mg/kg
  Tumor weight (g), group Mean: 1.244 g
[1]; individual mouse, 20th day after the start of treatment, Antibody 1.14.4 3 mg/kg Q2D i.p., Lenvatinib mesylate 1 mg/kg QD p.o.
  Tumor weight (g), individual animal: 1.039 g and 2.048 g and 2.485 g and 0.652 g and 0.408 g and 1.362 g and 0.715 g
[1]; tumor growth inhibition by tumor volume, Day 16, vs hIgG4 control, antibody 1.14.4 3 mg/kg, Lenvatinib mesylate 1 mg/kg
  TGITV (%): 38.8%
[1]; tumor weight inhibition vs hIgG4 control, Day 20, Antibody 1.14.4 3 mg/kg, Lenvatinib mesylate 1 mg/kg
  TGITW: 21.3%
[2]; 16th day after the start of treatment, Antibody 1.14.4 3 mg/kg, Lenvatinib mesylate 1 mg/kg
  Weight (g)/Mean ± SEM Day 16: 22.5 ± 0.2 g
[2]; Day 0 = day of the start of treatment, Antibody 1.14.4 3 mg/kg, Lenvatinib mesylate 1 mg/kg
  Weight (g)/Mean ± SEM Day 0: 19.9 ± 0.3 g
[2]; Day 16 vs Day 0, Antibody 1.14.4 3 mg/kg, Lenvatinib mesylate 1 mg/kg
  Weight (g) Changes: +2.6 g
[2]; group mean (7 mice), day 0, Antibody 1.14.4 3 mg/kg Q2D i.p., Lenvatinib mesylate 1 mg/kg QD p.o.
  Days after the start of treatment/weight (g), group Mean, day 0: 19.9 g
[2]; group mean (7 mice), day 3, Antibody 1.14.4 3 mg/kg Q2D i.p., Lenvatinib mesylate 1 mg/kg QD p.o.
  Days after the start of treatment/weight (g), group Mean, day 3: 19.5 g
[2]; group mean (7 mice), day 6, Antibody 1.14.4 3 mg/kg Q2D i.p., Lenvatinib mesylate 1 mg/kg QD p.o.
  Days after the start of treatment/weight (g), group Mean, day 6: 20.3 g
[2]; group mean (7 mice), day 8, Antibody 1.14.4 3 mg/kg Q2D i.p., Lenvatinib mesylate 1 mg/kg QD p.o.
  Days after the start of treatment/weight (g), group Mean, day 8: 20.5 g
[2]; group mean (7 mice), day 10, Antibody 1.14.4 3 mg/kg Q2D i.p., Lenvatinib mesylate 1 mg/kg QD p.o.
  Days after the start of treatment/weight (g), group Mean, day 10: 20.9 g
[2]; group mean (7 mice), day 12, Antibody 1.14.4 3 mg/kg Q2D i.p., Lenvatinib mesylate 1 mg/kg QD p.o.
  Days after the start of treatment/weight (g), group Mean, day 12: 21.2 g
[2]; group mean (7 mice), day 14, Antibody 1.14.4 3 mg/kg Q2D i.p., Lenvatinib mesylate 1 mg/kg QD p.o.
  Days after the start of treatment/weight (g), group Mean, day 14: 22.3 g
[2]; group mean (7 mice), day 16, Antibody 1.14.4 3 mg/kg Q2D i.p., Lenvatinib mesylate 1 mg/kg QD p.o.
  Days after the start of treatment/weight (g), group Mean, day 16: 22.5 g
[2]; group mean (7 mice), day 19, Antibody 1.14.4 3 mg/kg Q2D i.p., Lenvatinib mesylate 1 mg/kg QD p.o.
  Days after the start of treatment/weight (g), group Mean, day 19: 21.9 g
[2]; group mean (7 mice), day 20, Antibody 1.14.4 3 mg/kg Q2D i.p., Lenvatinib mesylate 1 mg/kg QD p.o.
  Days after the start of treatment/weight (g), group Mean, day 20: 22.7 g
[2]; individual mouse, day 0, Antibody 1.14.4 3 mg/kg Q2D i.p., Lenvatinib mesylate 1 mg/kg QD p.o.
  Days after the start of treatment/weight (g), individual animal, day 0: 18.6 g and 19.5 g and 19.4 g and 20.0 g and 20.2 g and 20.8 g (2×)
[2]; individual mouse, day 3, Antibody 1.14.4 3 mg/kg Q2D i.p., Lenvatinib mesylate 1 mg/kg QD p.o.
  Days after the start of treatment/weight (g), individual animal, day 3: 18.8 g and 19.2 g and 18.9 g and 19.7 g and 19.3 g and 20.3 g and 20.2 g
[2]; individual mouse, day 6, Antibody 1.14.4 3 mg/kg Q2D i.p., Lenvatinib mesylate 1 mg/kg QD p.o.
  Days after the start of treatment/weight (g), individual animal, day 6: 19.4 g and 20.1 g and 19.8 g and 20.6 g and 20.3 g and 21.2 g and 20.8 g
[2]; individual mouse, day 8, Antibody 1.14.4 3 mg/kg Q2D i.p., Lenvatinib mesylate 1 mg/kg QD p.o.
  Days after the start of treatment/weight (g), individual animal, day 8: 19.5 g and 20.6 g and 20.4 g and 20.7 g and 20.3 g and 21.0 g (2×)
[2]; individual mouse, day 10, Antibody 1.14.4 3 mg/kg Q2D i.p., Lenvatinib mesylate 1 mg/kg QD p.o.
  Days after the start of treatment/weight (g), individual animal, day 10: 20.2 g and 21.1 g and 20.1 g and 21.5 g and 20.4 g and 21.7 g and 21.4 g
[2]; individual mouse, day 12, Antibody 1.14.4 3 mg/kg Q2D i.p., Lenvatinib mesylate 1 mg/kg QD p.o.
  Days after the start of treatment/weight (g), individual animal, day 12: 20.1 g and 21.1 g (2×) and 21.4 g and 20.7 g and 22.2 g and 21.6 g
[2]; individual mouse, day 14, Antibody 1.14.4 3 mg/kg Q2D i.p., Lenvatinib mesylate 1 mg/kg QD p.o.
  Days after the start of treatment/weight (g), individual animal, day 14: 20.9 g and 22.9 g and 22.0 g (2×) and 22.2 g and 23.0 g (2×)
[2]; individual mouse, day 16, Antibody 1.14.4 3 mg/kg Q2D i.p., Lenvatinib mesylate 1 mg/kg QD p.o.
  Days after the start of treatment/weight (g), individual animal, day 16: 21.6 g and 22.8 g (2×) and 22.6 g and 22.5 g and 21.9 g and 23.0 g
[2]; individual mouse, day 19, Antibody 1.14.4 3 mg/kg Q2D i.p., Lenvatinib mesylate 1 mg/kg QD p.o.
  Days after the start of treatment/weight (g), individual animal, day 19: 21.2 g and 23.0 g (2×) and 21.9 g and 21.4 g and 22.6 g and 20.3 g
[2]; individual mouse, day 20, Antibody 1.14.4 3 mg/kg Q2D i.p., Lenvatinib mesylate 1 mg/kg QD p.o.
  Days after the start of treatment/weight (g), individual animal, day 20: 21.5 g and 23.2 g (3×) and 22.6 g and 22.1 g and 22.9 g
[3]; [5]
  Tumor volume (mm^3)/Mean ± SEM Day 17: 891 ± 149 mm^3
[3]; Day 17, Antibody 2E5 1 mg/kg, Lenvatinib mesylate 1 mg/kg (G2, G4, G5)
  Tumor weight (g) Mean ± SEM: 0.767 ± 0.103 g
[3]; by tumor volume, Day 17, vs hIgG4 control, Antibody 2E5 1 mg/kg, Lenvatinib mesylate 1 mg/kg (G2, G4, G5)
  Tumor growth inhibition (%): 68.2%
[3]; tumor weight analysis (Table 21), Day 17, vs IgG4 control, Antibody 2E5 1 mg/kg, Lenvatinib mesylate 1 mg/kg (G2, G4, G5)
  Tumor growth inhibition (%): 63.2%
[4]; [5]
  Weight (g)/Mean ± SEM Day 17: 28.0 ± 0.8 g
[4]; Day 0, Antibody 2E5 1 mg/kg i.p., Lenvatinib mesylate 1 mg/kg p.o. QD (G2, G4, G5)
  Weight (g)/Mean ± SEM Day 0: 24.9 ± 0.8 g
[4]; Day 17 vs Day 0, Antibody 2E5 1 mg/kg, Lenvatinib mesylate 1 mg/kg (G2, G4, G5)
  Weight (g) Changes: +3.1 g
